29 compounds from patent publication US6043248A, “Alpha-substituted pyrimidine-thioalkyl and alkylether compounds as inhibitors of viral reverse transcriptase” (priority 1997, dated 2000) can be followed below.

Assay [1] addresses T1, P236L viral reverse transcriptase (Human immunodeficiency virus type 1 group M subtype B, UniProt P04585, P823L).
T1 construct: P236L viral reverse transcriptase is obtained by PNAS 90: 4713-4717 (1993); made in house
Briefly: inhibition of viral reverse transcriptase (P236L), cell free assay. It is filed as biochemical. The note with it: IC50 (Table I, P236L), 30 minutes at 37° C. In short, it runs like this:
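E. coli-expressed wild-type or P236L RT extracts incubated with inhibitor 30 min at 37 °C in Tris pH 8.3 with MgCl₂, NaCl, DTT, NP-40, 10 μM [35S]-dNTP, poly rC/rG template and oligo dG/dT primer. Incorporated label counted on DE81 paper; reported as % inhibition and/or IC50.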

Assay [2] has as its target T2, viral reverse transcriptase (Wild Type) (Human immunodeficiency virus type 1 group M subtype B, UniProt P04585).
T2 construct: Viral reverse transcriptase (Wild Type) is found in extracts from bacterial clones; made in house; host or cells: Escherichia coli
Briefly: inhibition of viral reverse transcriptase (Wild Type), cell free assay. It is filed as biochemical. The settings on record: for IC50: 30 minutes at 37° C. The text has this:
The utility of the pyrimidine-thioalkyl and alkylether anti-AIDS compounds of Formula IA of this invention can be determined by their ability to inhibit viral reverse transcriptase, an enzyme essential for human immunodeficiency virus replication. This enzyme has characteristics which differentiate it from other known cellular polymerases and it is a unique enzyme which is not found in uninfected cells. Viral reverse transcriptase (Wild Type) is found in extracts from bacterial clones prepared according to the procedure described in AIDS Virus Reverse Transcriptase defined by high level expression in Escherichia coli, EMBO J. 6:3133-3137 (1987). P236L viral reverse transcriptase is obtained by PNAS 90: 4713-4717 (1993). Inhibition of this enzyme is determined in a cell free assay which measures the level of radioactive precursors incorporated into DNA. Extracts prepared according to the procedure of Science, 1125-1129 (1981) are incubated in a mixture of inhibitor, 20 mM dithiothreitol, 60 mM sodium chloride, 0.05% NP-40, 10 mM magnesium chloride, 50 mM Tris pH 8.3, 10 μM [^35 S]-labeled deoxynuleoside-5'-triphosphate, 10 μg/ml RNA template (poly rC or poly rG) and 5 μg/ml DNA primer (oligo dG or oligo dT) for 30 minutes at 37° C. Incorporation of radio-labeled percursor is determined by spotting aliquots of the reaction mixture on DE81 paper, washing the papers to remove unincorporated percursor, drying and determining counts. The results (IC50 means the concentration, in μM of drug, required to inhibit the reverse transcriptase activity (P236L and Wild Type) to the extent of 50%) of various assay(s) are combined and reported as % inhibition and/or IC50 (calculated) in Table I (P236L) and Table II (Wild Type).

[3] abbreviates: read-out: IC50 (Table II, Wild Type).

Where two headings read alike, the source gives them in different places.

Broadly, the IC50 is the concentration at which inhibition is half-maximal. The inhibition is the change of the read-out against control, counted positive when it falls. In assay [1], `CN(C(=O)/C=C/CSc1nc(N)cc(Cl)n1)c1ccccc1` [Example 200, (E)-N-methyl-N-phenyl-4-[(4-amino-6-chloro-2-pyrimidinyl)thio]-2-butenamide] came in with an IC50 of 1000 nM. In addition, the inhibition at 10 µM in assay [2] was determined as 57%.
Consider `CCc1ccnc(C(C)Sc2nc(N)cc(Cl)n2)c1` (stereo not shown) [Example 216, 4-Amino-6-chloro-2-(1-(4-ethyl-2-pyridyl)ethyl)thio-pyrimidine], for which the figures for the concentration for half-maximal inhibition (IC50) in assay [1] and in assay [2] (setting [3]) were 30 nM and 27 nM, respectively.
For `C=C(C)c1ccnc(C(C)Sc2nc(N)cc(Cl)n2)c1` (stereo not shown) [Example 221, 4-Amino-6-chloro-2-(1-(4-(1-methylethenyl)-2-pyridyl)ethyl)thio-pyrimidine], in that order: 39 nM and 19 nM.
`CC(Sc1nc(N)cc(Cl)n1)c1cc2ccoc2cn1` (stereo not shown) [Example 238, 4-Amino-6-chloro-2-(1-(furo[2,3-c]pyridin-5-yl)ethyl)thio-pyrimidine]: the figures for the half-maximal inhibitory concentration (IC50) in assay [1] and in assay [2] (setting [3]) were 11 nM and 7 nM, respectively.
In turn, `CC(C)Oc1ccnc(C(C)Sc2nc(N)cc(Cl)n2)c1` (stereo not shown) [Example 263] had a concentration for half-maximal inhibition (IC50) in assay [1] of 100 nM. The compound further registered an inhibition at 1 µM in assay [2] of 86%.
On to `Cc1coc2cnc([C@H](C)Sc3nc(N)cc(Cl)n3)cc12` [Example 290, (S)-(-)-4-Amino-6-chloro-2-(1-(3-methylfuro[2,3c]pyridine-5-yl)ethyl)thio-pyrimidine], for which the half-maximal inhibitory concentration (IC50) in assay [1] worked out at 14 nM; in assay [2] (setting [3]), 25 nM.
Compound `CC(Sc1nc(N)cc(Cl)n1)c1cc(C2CC2)ccn1` (stereo not shown) [Example 255] registered an IC50 in assay [1] of 100 nM. This compound yielded an inhibition at 1 µM in assay [2] of 96%.
Take `Cc1cc2cc(C(C)Sc3nc(N)cc(C(F)(F)F)n3)ncc2o1` (stereo not shown) [Example 243, 4-Amino-6-trifluoromethyl-2-(1-(2-methylfuro[2,3c]pyridine-5-yl)ethyl)thio-pyrimidine]: the IC50 in assay [1] was found to be 188 nM; in assay [2] (setting [3]), 495 nM.
In the case of `CN1CCN(C(=O)/C=C/CSc2nc(N)cc(Cl)n2)CC1` [Example 195, (E)-4-methyl-1-[4-[(4-amino-6-chloro-2-pyrimidinyl)thio]-1-oxo-2-butenyl]piperazine], half-maximal inhibition in assay [1] (IC50) was put at 50000 nM. The inhibition at 50 µM in assay [2] (@ 50 μM) stood at 40%.
Take `CC(C)c1ccnc(C(C)Sc2nc(N)c(Br)c(Cl)n2)c1` (stereo not shown) [Example 225]: the concentration for half-maximal inhibition (IC50) came out at 67 nM in assay [1] and 101 nM in assay [2] (setting [3]).
Turning to `Cc1coc2cnc([C@H](C)Sc3nc(N)cc(C(F)(F)F)n3)cc12` [Example 297, (S)-(-)-4-Amino-6-trifluoromethyl-2-(l1-(3-methylfuro[2,3c]pyridin-5-yl)ethylthio)-pyrimidine], the results for the concentration for half-maximal inhibition (IC50) in assay [1] and in assay [2] (setting [3]) were 64 nM and 78 nM, respectively.
As for `CCc1cc(C(C)Sc2nc(N)cc(Cl)n2)ncc1OC` (stereo not shown) [Example 245, 4-Amino-6-chloro-2-(1-(4-ethyl-5-methoxy-2-pyridyl)ethyl)thio-pyrimidine], the IC50 in assay [1] stood at 191 nM; in assay [2] (setting [3]) it was 343 nM.
The compound `CC(C)(C)c1ccnc(CSc2nc(N)cc(C(F)(F)F)n2)c1` [Example 273, 4-amino-6-trifluoromethyl-2-((4-(1,1-dimethylethyl)2-pyridyl)methyl)-thio-pyrimidine] showed an IC50 in assay [1] of 100 nM. Further, the inhibition at 1 µM in assay [2] was 75%.
Regarding `CC(Sc1nc(N)cc(Cl)n1)c1cc(C2CCCC2)ccn1` (stereo not shown) [Example 253], the IC50 in assay [1] stood at 200 nM; in assay [2] (setting [3]) it was 203 nM.
On to `N#Cc1cc(N)nc(SCc2ccc3ccccc3c2)n1` [Example 277, 6-amino-2-(2-naphthylmethyl)thio-4-pyrimidine carbonitrile], for which the IC50 in assay [1] was determined as 500 nM. For the same compound, the inhibition at 10 µM in assay [2] came to 84%.
Consider `Cc1cc2cc(C(C)Sc3nc(N)cc(Cl)n3)nc(Cl)c2o1` (stereo not shown) [Example 240, 4-Amino-6-chloro-2-(1-(7-chloro-2-methylfuro[2,3c]pyridin-5-yl)ethyl)thio-pyrimidine], for which the IC50 in assay [1] came out at 116 nM; in assay [2] (setting [3]), 381 nM.
Consider `CC(C)c1cncc(C(C)Sc2nc(N)cc(Cl)n2)c1` (stereo not shown) [Example 260, 4-amino-6-chloro-2-(1-(5-(1-methylethyl)-3-pyridyl)-ethyl)thio-pyrimidine], for which the half-inhibitory concentration (IC50) in assay [1] turned out to be 30 nM; in assay [2] (setting [3]), 70 nM.
Take `CC(Sc1nc(N)cc(Cl)n1)c1cc2ccccc2cn1` (stereo not shown) [Example 230, 4-Amino-6-chloro-2-(1-(3-isoquinolyl)ethyl)thio-pyrimidine]: the IC50 in assay [1] was 39 nM; in assay [2] (setting [3]), 19 nM.
`CCC(CC)c1ccnc(C(C)Sc2nc(N)cc(Cl)n2)c1` (stereo not shown) [Example 261, 4-amino-6-chloro-2-(1-(4-(1-ethylpropyl)-2-pyridyl)-ethyl)thio-pyrimidine]: the IC50 stood at 70 nM in assay [1] and 59 nM in assay [2] (setting [3]).
In the case of `CC(Sc1nc(N)cc(Cl)n1)c1ccc(OCc2ccccc2)c(Cl)n1` (stereo not shown) [Example 303, 4-amino-6-chloro-2-(((5-benzyloxy-6-chloro)-2-pyridyl)-ethyl)thio-pyrimidine], the half-inhibitory concentration (IC50) in assay [1] amounted to 5000 nM; in assay [2] (setting [3]) it was 50000 nM.
For the compound `CCN(CC)C(=O)/C=C/C(C)Sc1nc(N)cc(Cl)n1` (stereo not shown) [Example 207, (E)-N,N-Diethyl-4-[(4-amino-6-chloro-2-pyrimidinyl)thio]-2-pentenamide], the results for the IC50 in assay [1] and in assay [2] (setting [3]) were 68 nM and 49 nM, respectively.
For `Cc1coc2cnc(C(C)Sc3nc(N)cc(Cl)n3)cc12` (stereo not shown) [Example 246, 4-Amino-6-chloro-2-(1-(3-methylfuro[2,3c]pyridine-5-yl)ethyl)thio-pyrimidine], the results for the IC50 in assay [1] and in assay [2] (setting [3]) were 31 nM and 24 nM, respectively.
The corresponding values for `COC(=O)/C=C/CSc1nc(N)cc(Cl)n1` [Example 193, (E)-4-[(4-Amino-6-chloro-2-pyrimidinyl)thio]-2-butenoic acid methyl ester] are 930 nM and 5250 nM.
For `CCC(C)c1ccnc(C(C)Sc2nc(N)cc(Cl)n2)c1` (stereo not shown) [Example 256, 4-amino-6-chloro-2-(1-(4-(1-methylpropyl)-2-pyridyl)-ethyl)thio-pyrimidine], the IC50 in assay [1] came to 100 nM; in assay [2] (setting [3]), 93 nM.
Take `CCc1ccnc([C@@H](C)Sc2nc(N)cc(Cl)n2)c1` [Example 291, R-(+)-4-Amino-6-chloro-2-(1-(4-ethyl-2-pyridyl)ethyl)thio-pyrimidine]: the values for the concentration for half-maximal inhibition (IC50) in assay [1] and in assay [2] (setting [3]) were 80 nM and 187 nM, respectively.
Consider `CCc1ccnc([C@H](C)Sc2nc(N)cc(Cl)n2)c1` [Example 292, (-)-4-Amino-6-chloro-2-(1-(4-ethyl-2-pyridyl)ethyl)thio-pyrimidine], for which the half-maximal inhibitory concentration (IC50) in assay [1] stood at 17 nM; in assay [2] (IC50 (Table II, Wild Type)), 7 nM.
`CCc1coc2cnc(C(C)Sc3nc(N)cc(Cl)n3)cc12` (stereo not shown) [Example 249, 4-Amino-6-chloro-2-(1-(3-ethylfuro[2,3c]pyridine-5-yl)ethyl)thio-pyrimidine]: the concentration for half-maximal inhibition (IC50) in assay [1] came out at 10 nM; in assay [2] (setting [3]), 23 nM.
Compound `COC(=O)/C=C(\C)CSc1nc(N)cc(Cl)n1` [Example 208, (E)-4-[(4-Amino-6-chloro-2-pyrimidinyl)thio]-3-methyl-2-butenoic acid methyl ester] displayed an IC50 in assay [1] of 1000 nM. The compound further returned an inhibition at 10 µM in assay [2] of 79%.
For the compound `Cc1coc2c(Cl)nc(C(C)Sc3nc(N)cc(C(F)(F)F)n3)cc12` (stereo not shown) [Example 295, 4-Amino-2-(1-(7-chloro-3-methyl-furo[2,3c]pyridin-5-yl)ethylthio)-6-trifluoromethyl-pyrimidine], the figures for the IC50 in assay [1] and in assay [2] (setting [3]) were 249 nM and 212 nM, respectively.
